Measured values published in patent US11084790B2, “Insoluble complex or solvate thereof, pharmaceutical composition and use thereof” (Fruithy Holdings Limited, priority 2017, dated 2021).

Experiments:
[1] = Test on the solubility in a simulated body fluid; format: physicochemical
Procedure: Test on the Solubility in a Simulated Body Fluid
The concentration of the drug dissolved in the PBS buffered solution was determined with an HPLC-a method.

[2] = Test on the solubility in media at different pH; format: physicochemical
Procedure: Test on the Solubility in Media at Different pH
About 200 mg of solid powders of Preparation Example 10 and Preparation Example 15 were added in a 500 mL phosphate buffered solution at different pH values (50 mmol/L, pH 5.5, pH 6.5, pH 7.4, and pH 8.0) respectively, placed into a dissolution tester, kept at a constant temperature of 37° C., and paddle stirred at 50 rpm for 72 hours. Appropriate amounts of the suspension were taken out at 15 min, 30 min, 45 min, 1 h, 2 h, 4 h, 6 h, 8 h, 24 h, 32 h, 48 h, and 72 h respectively, and centrifuged immediately (15000 rpm, 5 min). The supernatant was diluted with methanol by a factor of two. The concentration of the drug dissolved in the PB buffer solution was determined with an HPLC-b method.

[3] = 0.01 M PBS pH 7.4, 37° C., 5 min
[4] = 0.01 M PBS pH 7.4, 37° C., 15 min
[5] = 0.01 M PBS pH 7.4, 37° C., 30 min
[6] = 0.01 M PBS pH 7.4, 37° C., 24 h
[7] = phosphate buffer pH 5.5, 37° C., 0.25 h
[8] = phosphate buffer pH 5.5, 37° C., 0.5 h
[9] = phosphate buffer pH 5.5, 37° C., 0.75 h
[10] = phosphate buffer pH 5.5, 37° C., 1 h
[11] = phosphate buffer pH 5.5, 37° C., 2 h
[12] = phosphate buffer pH 5.5, 37° C., 4 h
[13] = phosphate buffer pH 5.5, 37° C., 6 h
[14] = phosphate buffer pH 5.5, 37° C., 8 h
[15] = phosphate buffer pH 5.5, 37° C., 24 h
[16] = phosphate buffer pH 5.5, 37° C., 32 h
[17] = phosphate buffer pH 5.5, 37° C., 48 h
[18] = phosphate buffer pH 5.5, 37° C., 72 h
[19] = phosphate buffer pH 6.5, 37° C., 0.25 h
[20] = phosphate buffer pH 6.5, 37° C., 0.5 h
[21] = phosphate buffer pH 6.5, 37° C., 0.75 h
[22] = phosphate buffer pH 6.5, 37° C., 1 h
[23] = phosphate buffer pH 6.5, 37° C., 2 h
[24] = phosphate buffer pH 6.5, 37° C., 4 h
[25] = phosphate buffer pH 6.5, 37° C., 6 h
[26] = phosphate buffer pH 6.5, 37° C., 8 h
[27] = phosphate buffer pH 6.5, 37° C., 24 h
[28] = phosphate buffer pH 6.5, 37° C., 32 h
[29] = phosphate buffer pH 6.5, 37° C., 48 h
[30] = phosphate buffer pH 6.5, 37° C., 72 h
[31] = phosphate buffer pH 7.4, 37° C., 0.25 h
[32] = phosphate buffer pH 7.4, 37° C., 0.5 h
[33] = phosphate buffer pH 7.4, 37° C., 0.75 h
[34] = phosphate buffer pH 7.4, 37° C., 1 h
[35] = phosphate buffer pH 7.4, 37° C., 2 h
[36] = phosphate buffer pH 7.4, 37° C., 4 h
[37] = phosphate buffer pH 7.4, 37° C., 6 h
[38] = phosphate buffer pH 7.4, 37° C., 8 h
[39] = phosphate buffer pH 7.4, 37° C., 24 h
[40] = phosphate buffer pH 7.4, 37° C., 32 h
[41] = phosphate buffer pH 7.4, 37° C., 48 h
[42] = phosphate buffer pH 7.4, 37° C., 72 h
[43] = phosphate buffer pH 8.0, 37° C., 0.25 h
[44] = phosphate buffer pH 8.0, 37° C., 0.5 h
[45] = phosphate buffer pH 8.0, 37° C., 0.75 h
[46] = phosphate buffer pH 8.0, 37° C., 1 h
[47] = phosphate buffer pH 8.0, 37° C., 2 h
[48] = phosphate buffer pH 8.0, 37° C., 4 h
[49] = phosphate buffer pH 8.0, 37° C., 6 h
[50] = phosphate buffer pH 8.0, 37° C., 8 h
[51] = phosphate buffer pH 8.0, 37° C., 24 h
[52] = phosphate buffer pH 8.0, 37° C., 32 h
[53] = phosphate buffer pH 8.0, 37° C., 48 h
[54] = phosphate buffer pH 8.0, 37° C., 72 h

**Q.** What does the source list for `CCCCN1CCCCC1C(=O)Nc1c(C)cccc1C.CCCCN1CCCCC1C(=O)Nc1c(C)cccc1C.O=C(O)c1cc2ccccc2c(Cc2c(O)c(C(=O)O)cc3ccccc23)c1O` [Preparation Example 15, bis(bupivacaine) pamoate]?
**A.** Compound concentration: Bupivacaine [1, 3]: 112.8 µM; Compound concentration: Pamoic acid [1, 3]: 57.2 µM; Compound concentration: Bupivacaine [1, 4]: 153.8 µM; Compound concentration: Pamoic acid [1, 4]: 77.9 µM; Compound concentration: Bupivacaine [1, 5]: 239.4 µM; Compound concentration: Pamoic acid [1, 5]: 120.2 µM; Compound concentration: Bupivacaine ([1]; 0.01 M PBS pH 7.4, 37° C., 1 h): 257.4 µM; Compound concentration: Pamoic acid ([1]; 0.01 M PBS pH 7.4, 37° C., 1 h): 127.8 µM; Compound concentration: Bupivacaine ([1]; 0.01 M PBS pH 7.4, 37° C., 2 h): 287.5 µM; Compound concentration: Pamoic acid ([1]; 0.01 M PBS pH 7.4, 37° C., 2 h): 141.5 µM; Compound concentration: Bupivacaine ([1]; 0.01 M PBS pH 7.4, 37° C., 6 h): 290.1 µM; Compound concentration: Pamoic acid ([1]; 0.01 M PBS pH 7.4, 37° C., 6 h): 146.7 µM; Compound concentration: Bupivacaine [1, 6]: 290.3 µM; Compound concentration: Pamoic acid [1, 6]: 143 µM; stability of the suspension (ratio between acid radical and basic group) ([1]; simulated body fluid): stable; solubility ([1]; simulated body fluid, 0.01 M PBS pH 7.4, 37° C.): about 0.3 mM; molar ratio of the solubility (bupivacaine to pamoic acid) ([2]; media at pH 5.5, pH 6.5, pH 7.4 and pH 8.0, remained for at least 72 hours): around 2.0; Molar concentration of Bupivacaine [2, 7]: 0.050 mmol/L; Molar concentration of Pamoic acid [2, 7]: 0.020 mmol/L; Molar concentration of Bupivacaine [2, 8]: 0.070 mmol/L; Molar concentration of Pamoic acid [2, 8]: 0.034 mmol/L; Molar concentration of Bupivacaine [2, 9]: 0.140 mmol/L; Molar concentration of Pamoic acid [2, 9]: 0.070 mmol/L; Molar concentration of Bupivacaine [2, 10]: 0.196 mmol/L; Molar concentration of Pamoic acid [2, 10]: 0.092 mmol/L; Molar concentration of Bupivacaine [2, 11]: 0.198 mmol/L; Molar concentration of Pamoic acid [2, 11]: 0.094 mmol/L; Molar concentration of Bupivacaine [2, 12]: 0.198 mmol/L; Molar concentration of Pamoic acid [2, 12]: 0.092 mmol/L; Molar concentration of Bupivacaine [2, 13]: 0.198 mmol/L; Molar concentration of Pamoic acid [2, 13]: 0.094 mmol/L; Molar concentration of Bupivacaine [2, 14]: 0.198 mmol/L; Molar concentration of Pamoic acid [2, 14]: 0.092 mmol/L; Molar concentration of Bupivacaine [2, 15]: 0.192 mmol/L; Molar concentration of Pamoic acid [2, 15]: 0.088 mmol/L; Molar concentration of Bupivacaine [2, 16]: 0.196 mmol/L; Molar concentration of Pamoic acid [2, 16]: 0.092 mmol/L; Molar concentration of Bupivacaine [2, 17]: 0.198 mmol/L; Molar concentration of Pamoic acid [2, 17]: 0.092 mmol/L; Molar concentration of Bupivacaine [2, 18]: 0.190 mmol/L; Molar concentration of Pamoic acid [2, 18]: 0.084 mmol/L; Molar concentration of Bupivacaine [2, 19]: 0.046 mmol/L; Molar concentration of Pamoic acid [2, 19]: 0.024 mmol/L; Molar concentration of Bupivacaine [2, 20]: 0.076 mmol/L; Molar concentration of Pamoic acid [2, 20]: 0.038 mmol/L; Molar concentration of Bupivacaine [2, 21]: 0.138 mmol/L; Molar concentration of Pamoic acid [2, 21]: 0.076 mmol/L; Molar concentration of Bupivacaine [2, 22]: 0.202 mmol/L; Molar concentration of Pamoic acid [2, 22]: 0.106 mmol/L; Molar concentration of Bupivacaine [2, 23]: 0.204 mmol/L; Molar concentration of Pamoic acid [2, 23]: 0.108 mmol/L; Molar concentration of Bupivacaine [2, 24]: 0.202 mmol/L; Molar concentration of Pamoic acid [2, 24]: 0.106 mmol/L; Molar concentration of Bupivacaine [2, 25]: 0.198 mmol/L; Molar concentration of Pamoic acid [2, 25]: 0.104 mmol/L; Molar concentration of Bupivacaine [2, 26]: 0.198 mmol/L; Molar concentration of Pamoic acid [2, 26]: 0.106 mmol/L; Molar concentration of Bupivacaine [2, 27]: 0.198 mmol/L; Molar concentration of Pamoic acid [2, 27]: 0.106 mmol/L; Molar concentration of Bupivacaine [2, 28]: 0.202 mmol/L; Molar concentration of Pamoic acid [2, 28]: 0.106 mmol/L; Molar concentration of Bupivacaine [2, 29]: 0.200 mmol/L; Molar concentration of Pamoic acid [2, 29]: 0.106 mmol/L; Molar concentration of Bupivacaine [2, 30]: 0.196 mmol/L; Molar concentration of Pamoic acid [2, 30]: 0.100 mmol/L; Molar concentration of Bupivacaine [2, 31]: 0.038 mmol/L; Molar concentration of Pamoic acid [2, 31]: 0.020 mmol/L; Molar concentration of Bupivacaine [2, 32]: 0.080 mmol/L; Molar concentration of Pamoic acid [2, 32]: 0.042 mmol/L; Molar concentration of Bupivacaine [2, 33]: 0.192 mmol/L; Molar concentration of Pamoic acid [2, 33]: 0.100 mmol/L; Molar concentration of Bupivacaine [2, 34]: 0.240 mmol/L; Molar concentration of Pamoic acid [2, 34]: 0.134 mmol/L; Molar concentration of Bupivacaine [2, 35]: 0.246 mmol/L; Molar concentration of Pamoic acid [2, 35]: 0.134 mmol/L; Molar concentration of Bupivacaine [2, 36]: 0.242 mmol/L; Molar concentration of Pamoic acid [2, 36]: 0.134 mmol/L; Molar concentration of Bupivacaine [2, 37]: 0.234 mmol/L; Molar concentration of Pamoic acid [2, 37]: 0.13 mmol/L; Molar concentration of Bupivacaine [2, 38]: 0.232 mmol/L; Molar concentration of Pamoic acid [2, 38]: 0.128 mmol/L; Molar concentration of Bupivacaine [2, 39]: 0.226 mmol/L; Molar concentration of Pamoic acid [2, 39]: 0.124 mmol/L; Molar concentration of Bupivacaine [2, 40]: 0.226 mmol/L; Molar concentration of Pamoic acid [2, 40]: 0.124 mmol/L; Molar concentration of Bupivacaine [2, 41]: 0.230 mmol/L; Molar concentration of Pamoic acid [2, 41]: 0.126 mmol/L; Molar concentration of Bupivacaine [2, 42]: 0.224 mmol/L; Molar concentration of Pamoic acid [2, 42]: 0.120 mmol/L; Molar concentration of Bupivacaine [2, 43]: 0.036 mmol/L; Molar concentration of Pamoic acid [2, 43]: 0.020 mmol/L; Molar concentration of Bupivacaine [2, 44]: 0.092 mmol/L; Molar concentration of Pamoic acid [2, 44]: 0.050 mmol/L; Molar concentration of Bupivacaine [2, 45]: 0.252 mmol/L; Molar concentration of Pamoic acid [2, 45]: 0.138 mmol/L; Molar concentration of Bupivacaine [2, 46]: 0.328 mmol/L; Molar concentration of Pamoic acid [2, 46]: 0.182 mmol/L; Molar concentration of Bupivacaine [2, 47]: 0.336 mmol/L; Molar concentration of Pamoic acid [2, 47]: 0.186 mmol/L; Molar concentration of Bupivacaine [2, 48]: 0.338 mmol/L; Molar concentration of Pamoic acid [2, 48]: 0.192 mmol/L; Molar concentration of Bupivacaine [2, 49]: 0.338 mmol/L; Molar concentration of Pamoic acid [2, 49]: 0.190 mmol/L; Molar concentration of Bupivacaine [2, 50]: 0.334 mmol/L; Molar concentration of Pamoic acid [2, 50]: 0.186 mmol/L; Molar concentration of Bupivacaine [2, 51]: 0.326 mmol/L; Molar concentration of Pamoic acid [2, 51]: 0.182 mmol/L; Molar concentration of Bupivacaine [2, 52]: 0.328 mmol/L; Molar concentration of Pamoic acid [2, 52]: 0.186 mmol/L; Molar concentration of Bupivacaine [2, 53]: 0.336 mmol/L; Molar concentration of Pamoic acid [2, 53]: 0.186 mmol/L; Molar concentration of Bupivacaine [2, 54]: 0.336 mmol/L; Molar concentration of Pamoic acid [2, 54]: 0.184 mmol/L
